Measurements: patent publication US20100152261A1 (MITSUBISHI TANABE PHARMA CORPORATION, priority 2005, published 2010)
Read-outs that look alike come from different tables or passages of the source.

Key:
muscarinic M3 receptor = biological target: T1, muscarinic M3 receptor (Cavia porcellus, UniProt H0W1Z3); test: Muscarinic M3 antagonistic action in isolated guinea pig trachea (carbachol-induced contraction, Schild method); assay type: cell-based; details: compound applied 15 minutes before carbachol
T1 construct: trachea was excised, and cut at every two tracheal cartilages to prepare tissue specimens; from tissue; host or cells: isolated guinea pig trachea (male Hartley)
Procedure: Muscarinic M3 Antagonistic Action in Isolated Guinea Pig Trachea
Male Hartley guinea pigs (350 to 600 g) were sacrificed by bleeding, and trachea was excised, and cut at every two tracheal cartilages to prepare tissue specimens. Each tissue specimen was kept warm at 37° C., suspended with a resting tension of 1 g in a 5-mL Magnus bath filled with a Krebs carbonate buffer containing indomethacin (1 μM) bubbled with 95% O2/5% CO2, and left for 60 minutes as a stabilization period. […] After the measurement, the tissue specimen was immediately washed, and left for 60 minutes as a stabilization period before the next contraction reaction, and the tissue specimen of which EC50 for the carbachol-induced contraction reaction was stabilized was considered as a control. Each test compound was applied 15 minutes before the addition of carbachol. The affinity (pA2) of the test compound was obtained by the Schild method (Arunlakshana, O. and Schild, H. O., Brit. J. Pharmacol., 1959, 14, 48-58).

muscarinic M2 receptor = biological target: T2, muscarinic M2 receptor (Cavia porcellus, UniProt H0VRN8); test: Muscarinic M2 antagonistic action in isolated guinea pig left atrium (carbachol-induced relaxation, Schild method); assay type: cell-based; details: compound applied 30 minutes before carbachol
T2 construct: left atria were excised to prepare tissue specimens; from tissue; host or cells: isolated guinea pig left atrium (male Hartley)
T2 sequence (H0VRN8 1-466): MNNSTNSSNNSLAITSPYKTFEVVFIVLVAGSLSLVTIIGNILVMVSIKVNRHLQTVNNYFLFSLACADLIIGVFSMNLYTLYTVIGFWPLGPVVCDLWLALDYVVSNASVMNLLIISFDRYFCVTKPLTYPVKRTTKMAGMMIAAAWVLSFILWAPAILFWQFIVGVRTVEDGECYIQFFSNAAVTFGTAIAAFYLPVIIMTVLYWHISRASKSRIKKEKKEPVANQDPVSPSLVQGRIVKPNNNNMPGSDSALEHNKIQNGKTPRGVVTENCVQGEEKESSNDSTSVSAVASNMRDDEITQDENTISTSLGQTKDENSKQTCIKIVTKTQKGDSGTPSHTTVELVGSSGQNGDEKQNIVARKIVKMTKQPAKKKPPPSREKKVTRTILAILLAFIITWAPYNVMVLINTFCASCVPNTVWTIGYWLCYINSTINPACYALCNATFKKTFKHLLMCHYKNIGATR
Procedure: Muscarinic M2 Antagonistic Action in Isolated Guinea Pig Left Atrium […] Each tissue specimen was kept warm at 37° C., suspended with a resting tension of 0.5 g in a 5-mL Magnus bath filled with a Krebs carbonate buffer bubbled with 95% O2/5% CO2. Then, contraction evoked by field electrical stimulation (4 Hz, 2 msec, 1.5×threshold potential) was measured. After a stabilization period of 60 minutes, carbachol-induced relaxation was isometrically measured and recorded by the cumulative method from 10^−8 M with an interval of 90 seconds for one concentration in an equal ratio of 3. After the measurement, the tissue specimen was immediately washed, and left for 45 minutes as a stabilization period before the next observation. The tissue specimen of which EC50 for the carbachol-induced relaxation was stabilized was considered as a control. Each test compound was applied 30 minutes before the addition of carbachol. The affinity (pA2) of the test compound was obtained in the same manner as in the case of the trachea.

[1] = pA2 Trachea M3, isolated guinea pig trachea
[2] = pA2 Left atrium M2, isolated guinea pig left atrium
[3] = isolated guinea pig left atrium
[4] = isolated guinea pig trachea, read-out: pA2 Trachea M3 (converted)
[5] = isolated guinea pig left atrium, read-out: pA2 Left atrium M2 (converted)

T1 sequence (H0W1Z3 1-590): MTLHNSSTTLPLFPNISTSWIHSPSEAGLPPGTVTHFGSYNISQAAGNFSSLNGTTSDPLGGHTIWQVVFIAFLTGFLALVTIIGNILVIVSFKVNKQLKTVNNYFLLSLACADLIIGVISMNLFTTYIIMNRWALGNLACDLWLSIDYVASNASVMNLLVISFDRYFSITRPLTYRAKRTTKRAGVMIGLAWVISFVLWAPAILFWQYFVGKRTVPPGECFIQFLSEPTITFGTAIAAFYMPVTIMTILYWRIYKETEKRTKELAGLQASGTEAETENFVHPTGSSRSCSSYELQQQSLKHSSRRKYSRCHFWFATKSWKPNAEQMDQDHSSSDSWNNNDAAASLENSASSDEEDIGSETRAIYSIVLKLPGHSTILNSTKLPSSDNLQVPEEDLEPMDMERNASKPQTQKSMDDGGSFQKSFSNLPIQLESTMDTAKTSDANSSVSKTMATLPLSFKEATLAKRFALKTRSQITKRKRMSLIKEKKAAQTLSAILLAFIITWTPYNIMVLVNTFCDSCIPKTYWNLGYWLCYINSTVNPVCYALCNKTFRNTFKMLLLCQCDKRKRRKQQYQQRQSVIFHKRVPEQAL

`COCC[n+]1ccn([C@H]2CC[C@H](C(C(N)=O)(c3ccccc3)c3ccccc3)C2)c1C` (relative stereo) [Example 67, 3-(trans-3-(Carbamoyl(diphenyl)methyl)cyclopentyl)-1-(2-methoxyethyl)-2-methyl-3H-imidazol-1-ium bromide] showed a Kb (muscarinic M3 receptor; [1]) of 1.26 nM and a Kb (muscarinic M2 receptor; [2]) of 79.4 nM.

In the case of `COCC[n+]1cn([C@H]2CC[C@@H](C(C(N)=O)(c3ccccc3)c3ccccc3)C2)cn1` (relative stereo) [Example 72, 4-(cis-3-(Carbamoyl(diphenyl)methyl)cyclopentyl)-1-(2-methoxyethyl)-4H-[1,2,4]triazol-1-ium bromide], the Kb (muscarinic M3 receptor; [1]) is reported as 0.794 nM and the Kb (muscarinic M2 receptor; [2]) is reported as 31.6 nM.

In the case of “3-(trans-3-(Carbamoyl(diphenyl)methyl)cyclopentyl)-1-cyclopentylmethyl-2-methyl-3H-imidazol-1-ium bromide [Example 68]”, the “pA2 Trachea M3” value (muscarinic M3 receptor; isolated guinea pig trachea) is reported as 9.4 and the “pA2 Left atrium M2” value (muscarinic M2 receptor; [3]) is reported as 7.4.

With `Cc1n([C@H]2CC[C@@H](C(C(N)=O)(c3ccccc3)c3ccccc3)C2)cc[n+]1C` [Example 94, 3-((1S,3R)-3-(Carbamoyl(diphenyl)methyl)cyclopentyl)-1,2-dimethyl-3H-imidazol-1-ium para-toluenesulfonate] the Kb (muscarinic M3 receptor; [4]) was 0.794 nM and the Kb (muscarinic M2 receptor; [5]) was 100 nM.

With `CCOCC[n+]1ccn([C@H]2CC[C@@H](C(C(N)=O)(c3ccccc3)c3ccccc3)C2)c1C` (relative stereo) [Example 25, 3-(cis-3-(Carbamoyl(diphenyl)methyl)cyclopentyl)-1-(2-ethoxy-ethyl)-2-methyl-3H-imidazol-1-ium bromide] the Kb (muscarinic M3 receptor; [1]) was 1.58 nM and the Kb (muscarinic M2 receptor; [2]) was 25.1 nM.

`CN1[C@@H]2CC[C@H]1C[C@@H](OC(=O)C(CO)c1ccccc1)C2` (stereo partly drawn) [Atropine, reference compound] showed a Kb (muscarinic M2 receptor; [2]) of 2.51 nM.

`CC(=O)OCC[n+]1ccn([C@H]2CC[C@@H](C(C(N)=O)(c3ccccc3)c3ccccc3)C2)c1C` (relative stereo) [Example 51, 3-(cis-3-(Carbamoyl(diphenyl)methyl)cyclopentyl)-1-(2-acetoxy-ethyl)-2-methyl-3H-imidazol-1-ium bromide] was tested, and the Kb (muscarinic M3 receptor; [1]) was 1 nM and the Kb (muscarinic M2 receptor; [2]) was 31.6 nM.

`C[n+]1ccn([C@H]2CC[C@@H](C(C(N)=O)(c3ccccc3)c3ccccc3)C2)c1` (relative stereo) [Example 5, 3-(cis-3-(Carbamoyl(diphenyl)methyl)cyclopentyl)-1-methyl-3H-imidazol-1-ium iodide] was tested, and the Kb (muscarinic M3 receptor; [1]) was 2.51 nM and the Kb (muscarinic M2 receptor; [2]) was 31.6 nM.

Compound `Cc1n([C@H]2CC[C@H](C(C(N)=O)(c3ccccc3)c3ccccc3)C2)cc[n+]1C` (relative stereo) [Example 66, 3-(trans-3-(Carbamoyl(diphenyl)methyl)cyclopentyl)-1,2-dimethyl-3H-imidazol-1-ium iodide] has a Kb (muscarinic M3 receptor; [1]) of 1.26 nM and a Kb (muscarinic M2 receptor; [2]) of 39.8 nM.

With `CC1=[N+](C)CCN1[C@@H]1CC[C@H](C(C(N)=O)(c2ccccc2)c2ccccc2)C1` [Example 57, 3-((1R,3S)-3-(Carbamoyl(diphenyl)methyl)cyclopentyl)-1,2-dimethyl-4,5-dihydro-3H-imidazol-1-ium iodide] the Kb (muscarinic M3 receptor; [1]) was 1.26 nM and the Kb (muscarinic M2 receptor; [2]) was 25.1 nM.

In the case of `C[n+]1cn([C@H]2CC[C@@H](C(C(N)=O)(c3ccccc3)c3ccccc3)C2)cn1` (relative stereo) [Example 69, 4-(cis-3-(Carbamoyl(diphenyl)methyl)cyclopentyl)-1-methyl-4H-[1,2,4]triazol-1-ium iodide], the Kb (muscarinic M3 receptor; [1]) is reported as 0.794 nM and the Kb (muscarinic M2 receptor; [2]) is reported as 25.1 nM.

`Cc1n([C@H]2CC[C@H](C(C(N)=O)(c3ccccc3)c3ccccc3)C2)cc[n+]1CCC(C)C` (relative stereo) [Example 73, 3-(trans-3-(Carbamoyl(diphenyl)methyl)cyclopentyl)-2-methyl-1-(3-methylbutyl)-3H-imidazol-1-ium bromide] gave a Kb (muscarinic M3 receptor; [1]) of 0.631 nM and a Kb (muscarinic M2 receptor; [2]) of 6.31 nM.

Work on `COCC[n+]1ccn([C@H]2CC[C@@H](C(C(N)=O)(c3ccccc3)c3ccccc3)C2)c1C` [Example 76, 3-((1S,3R)-3-(Carbamoyl(diphenyl)methyl)cyclopentyl)-1-(2-methoxyethyl)-2-methyl-3H-imidazol-1-ium para-toluenesulfonate] yielded a Kb (muscarinic M3 receptor; [4]) of 1.26 nM and a Kb (muscarinic M2 receptor; [5]) of 200 nM.

Compound `CC(=O)OCCC[n+]1ccn([C@H]2CC[C@H](C(C(N)=O)(c3ccccc3)c3ccccc3)C2)c1C` (relative stereo) [Example 75, 1-(3-Acetoxypropyl)-3-(trans-3-(carbamoyl(diphenyl)methyl)cyclopentyl)-2-methyl-3H-imidazol-1-ium bromide] has a Kb (muscarinic M3 receptor; [1]) of 0.501 nM and a Kb (muscarinic M2 receptor; [2]) of 158 nM.

In the case of `NC(=O)C(c1ccccc1)(c1ccccc1)[C@@H]1CC[C@H](n2c[n+](Cc3ccccc3)cn2)C1` (relative stereo) [Example 71, 4-Benzyl-1-(cis-3-(carbamoyl(diphenyl)methyl)cyclopentyl)-1H-[1,2,4]triazol-4-ium bromide], the Kb (muscarinic M3 receptor; [1]) is reported as 0.794 nM and the Kb (muscarinic M2 receptor; [2]) is reported as 39.8 nM.

Compound `Cc1n([C@H]2CC[C@H](C(C(N)=O)(c3ccccc3)c3ccccc3)C2)cc[n+]1Cc1ccccc1` (single isomer, unassigned) [Example 98, 1-Benzyl-3-(trans-3-(carbamoyl(diphenyl)methyl)cyclopentyl)-2-methyl-3H-imidazol-1-ium bromide] has a Kb (muscarinic M3 receptor; [1]) of 0.398 nM and a Kb (muscarinic M2 receptor; [2]) of 15.8 nM.

`CC#CC[n+]1ccn([C@H]2CC[C@@H](C(C(N)=O)(c3ccccc3)c3ccccc3)C2)c1C` [Example 82] showed a Kb (muscarinic M3 receptor; [1]) of 0.794 nM and a Kb (muscarinic M2 receptor; [2]) of 63.1 nM.

Compound `Cc1n([C@H]2CC[C@@H](C(C(N)=O)(c3ccccc3)c3ccccc3)C2)cc[n+]1Cc1ccc(F)cc1` [Example 85, 3-((1S,3R)-3-(Carbamoyl(diphenyl)methyl)cyclopentyl)-1-(4-fluorobenzyl)-2-methyl-3H-imidazol-1-ium bromide] has a Kb (muscarinic M3 receptor; [1]) of 0.794 nM and a Kb (muscarinic M2 receptor; [2]) of 31.6 nM.

With `Cc1n([C@H]2CC[C@@H](C(C(N)=O)(c3ccccc3)c3ccccc3)C2)cc[n+]1CCCO` (relative stereo) [Example 54, 3-(cis-3-(Carbamoyl(diphenyl)methyl)cyclopentyl)-1-(3-hydroxy-propyl)-2-methyl-3H-imidazol-1-ium bromide] the Kb (muscarinic M3 receptor; [1]) was 1 nM and the Kb (muscarinic M2 receptor; [2]) was 31.6 nM.

For `C=C(CC)[n+]1ccn([C@H]2CC[C@@H](C(C(N)=O)(c3ccccc3)c3ccccc3)C2)c1C.[Br-]` [Example 78, 3-((1S,3R)-3-(Carbamoyl(diphenyl)methyl)cyclopentyl)-1-buten-2-yl-2-methyl-3H-imidazol-1-ium bromide], the “pA2 Trachea M3” value (muscarinic M3 receptor; isolated guinea pig trachea) was 9.2 and the “pA2 Left atrium M2” value (muscarinic M2 receptor; [3]) was 7.9.

`COCC[n+]1ccn([C@@H]2CC[C@H](C(C(N)=O)(c3ccccc3)c3ccccc3)C2)c1C` [Example 77, 3-((1R,3S)-3-(Carbamoyl(diphenyl)methyl)cyclopentyl)-1-(2-methoxyethyl)-2-methyl-3H-imidazol-1-ium para-toluenesulfonate] gave a Kb (muscarinic M3 receptor; [4]) of 0.251 nM and a Kb (muscarinic M2 receptor; [5]) of 6.31 nM.

In the case of `Cc1n([C@H]2CC[C@@H](C(C(N)=O)(c3ccccc3)c3ccccc3)C2)cc[n+]1CCO.[Br-]` [Example 84, 3-((1S,3R)-3-(Carbamoyl(diphenyl)methyl)cyclopentyl)-1-hydroxyethyl-2-methyl-3H-imidazol-1-ium bromide], the “pA2 Trachea M3” value (muscarinic M3 receptor; isolated guinea pig trachea) is reported as 8.2 and the “pA2 Left atrium M2” value (muscarinic M2 receptor; [3]) is reported as 6.3.

Compound `CC(C)[N+]1(C)[C@@H]2CC[C@H]1C[C@@H](OC(=O)C(CO)c1ccccc1)C2` (stereo partly drawn) [Ipratropium, reference compound] has a Kb (muscarinic M3 receptor; [1]) of 1 nM and a Kb (muscarinic M2 receptor; [2]) of 3.98 nM.

`CC(=O)C[n+]1ccn([C@H]2CC[C@H](C(C#N)(c3ccccc3)c3ccccc3)C2)c1C` (relative stereo) [Example 88, 3-(trans-3-(Cyano(diphenyl)methyl)cyclopentyl)-2-methyl-1-(2-oxopropyl)-3H-imidazol-1-ium bromide] gave a Kb (muscarinic M3 receptor; [1]) of 1 nM and a Kb (muscarinic M2 receptor; [2]) of 251 nM.

`Cc1n([C@H]2CC[C@@H](C(C(N)=O)(c3ccccc3)c3ccccc3)C2)cc[n+]1C(F)F` [Example 81, 3-((1S,3R)-3-(Carbamoyl(diphenyl)methyl)cyclopentyl)-1-difluoromethyl-2-methyl-3H-imidazol-1-ium bromide] was tested, and the Kb (muscarinic M3 receptor; [1]) was 1 nM.
